Reference: patent US10973840B2, “Methods of sensitizing tumor cells to weak base chemotherapeutic drugs” (SOCPRA SCIENCES SANTÉ ET HUMAINES S.E.C., priority 2017, dated 2021)

Assays:
[1] = test system: NHE6 or NHE9 knockdown cells; test: MTT cell viability assay in NHE6 or NHE9 knockdown cells; format: cell-based, human; details: for IC50: Homo sapiens
Protocol: Lentiviruses and cell transduction pLKO.1-NHE6 and pLKO.1-NHE9 shRNA (Sigma-Aldrich) were co-transfected with ViraPower™ Lentiviral Packaging Mix (Invitrogen) into HEK293T cells according to manufacturer's instructions. Viruses were collected and concentrated by ultracentrifugation 72 h after transfection. HT-1080 and MDA-MB-231 cells were infected overnight with viruses and selected with puromycin (2 μg/ml) on the third day following transduction.
Cells (5×10^3) were cultured in 96-well plates and pre-incubated under 21% O2 or 1% O2 for 4 h following the addition of drugs for 72 h. Cell viability was measured using the 3-(4,5-dimethylthiazol-2-yl)-2,5-diphenyltetrazolium bromide (MTT) dye (Life Technologies) according to manufacturer's instructions. Because hypoxic conditions may affect the reduction of MTT to formazan, incubation of all cell cultures with MTT were performed under normoxic conditions. Each experiment was performed in triplicate and at least three independent experiments were performed. Log-scale dose-response data were plotted on a graph and a three-parameter non-linear regression was applied to determine IC50 values. For calculation of the IC50s, both normoxic and hypoxic drug-treated samples were normalized with their untreated counterpart.

HT1080 cancer cell line = test: MTT assay, doxorubicin with C2 or C2WY→AA peptide; format: cell-based; details: Homo sapiens
Protocol: The IC50 (half-maximal inhibitory concentration) values of doxorubicin for HT1080 cancer cell line treated with the C2 peptide ([…] (SEQ ID NO: 7)) or the C2WY→AA peptide ([…] (SEQ ID NO: 60)) were determined in normoxia or hypoxia.
Cells (5×10^3) were cultured in 96-well plates and preincubated under 21% O2 or 1% O2 for 4 h following the addition of doxorubicin (dose response from 10^−1 to 10^5 nM) in the presence or absence of C2 and C2WY→AA peptides (SEQ ID NOs: 7 and 60) for 72 h. Cell viability was measured using the MTT dye (Life Technologies) according to the manufacturer's instructions. Because hypoxic conditions may affect the reduction of MTT to formazan, incubation of all cell cultures with MTT were performed under normoxic conditions. Each experiment was performed in triplicate. Log-scale dose-response data were plotted on a graph and a three-parameter nonlinear regression was applied to determine IC50 values. Data are presented as the mean (nM).

[2] = test system: MDA-MB-231 tumor xenografts; test: Chorioallantoic membrane (CAM) xenograft assay, MDA-MB-231; format: in vivo, chick embryo; details: MDA-MB-231 on CAM
Protocol: Fertilized eggs from white leghorn chicken were obtained from Public Health Agency of Canada (Nepean, ON). Ethics approval was obtained from the Ethics Committee on Animal Research of the University of Sherbrooke and all experimental procedures involving embryos were conducted in accordance with the regulations of the Canadian Council on Animal Care. Eggs were incubated in an Ova-Easy egg incubator (Brinsea) at 37° C. with 60% humidity. At Day 3, eggs were cracked as described^67. At Day 9, HT-1080 and MDA-MB-231 cell suspensions (1×10^6 and 2×10^6 cells, respectively) were mixed (1:1) with growth factor reduced Matrigel (BD Biosciences) in a total volume of 20 μl. Cell grafts were placed on top of the CAM and eggs were returned to the incubator for 96 h until Day 13 (n>6 chick embryos per cell line). When mentioned, 50 μl of Dox were added topically to the formed tumors (Day 13 after tumor cell grafting). At Day 16, chick embryos were euthanatized by decapitation. Tumors were removed and tumor volumes were calculated using the formula: (Dd^2/3). For RNA quantification, tumors were immediately snap-frozen in liquid nitrogen and kept at −80° C. until RNA extraction using the Trizol reagent.
To determine whether these observations were of relevance to tumor therapy in vivo, the inventors used an ex ovo chorioallantoic membrane (CAM) xenograft model in live chicken embryos^40. MDA-MB-231 or HT-1080 cells, or cells expressing either the NHE6^527-588 competing fragment or its scrambled counterpart were inoculated onto the CAM of 9-day-old chick embryos. After allowing 3 days for cells to engraft, tumors were treated with Doxorubicin or PBS. Four days later, chick embryos were euthanized, and tumors were removed for analysis (FIG. 10A). To first ascertain that tumors implanted in CAM developed hypoxia, total mRNA was extracted from tumors generated by untransfected HT-1080 cells and gene expression of the hypoxic markers CA9, GLUT1 and MCT4 was measured by qPCR. […]

Which IC50 ([1]; scrambled shRNA, 1% O2) does the source give for COc1cccc2c1C(=O)c1c(O)c3c(c(O)c1C2=O)C[C@@](O)(C(=O)CO)C[C@@H]3O[C@H]1C[C@H](N)[C@H](O)[C@H](C)O1 [Dox, doxorubicin] here?
The IC50 was 459 nM.

And the IC50 ([1]; scrambled shRNA, 21% O2)?
Its IC50 is 179 nM.

And the IC50 ([1]; shRNA NHE6, 21% O2)?
The IC50 was 421 nM.

What about the IC50 ([1]; shRNA NHE9, 21% O2) of the same compound?
The IC50 was 202 nM.

And the “increase in cell resistance to Dox” value ([1]; NHE6 knockdown, normoxic cells)?
Its value is 2.4 fold.

What about the “Fold (compared to scrambled 21% O2)” value ([1]; scrambled shRNA, 1% O2) of the same compound?
The value was 2.5 fold.

What about the “Fold (compared to scrambled 21% O2)” value ([1]; scrambled shRNA, 21% O2) of the same compound?
Its value is 1.0 fold.

What about the “Fold (compared to scrambled 21% O2)” value ([1]; shRNA NHE6, 21% O2) of the same compound?
Its value is 2.4 fold.

What about the “Fold (compared to scrambled 21% O2)” value ([1]; shRNA NHE9, 21% O2) of the same compound?
The value was 1.1 fold.

What about the IC50 (HT1080 cancer cell line; HT-1080, Experiment 1, peptide: Vehicle, 1% O2) of the same compound?
The IC50 was 83.8 nM.

And the IC50 (HT1080 cancer cell line; HT-1080, Experiment 1, peptide: Vehicle, 21% O2)?
Its IC50 is 16 nM.

What about the IC50 (HT1080 cancer cell line; HT-1080, Experiment 1, with C2 0.25 μM, 1% O2) of the same compound?
Its IC50 is 39.7 nM.

What about the IC50 (HT1080 cancer cell line; HT-1080, Experiment 1, with C2 0.25 μM, 21% O2) of the same compound?
Its IC50 is 12.2 nM.

And the IC50 (HT1080 cancer cell line; HT-1080, Experiment 1, with C2 5.00 μM, 1% O2)?
Its IC50 is 39.1 nM.

And the IC50 (HT1080 cancer cell line; HT-1080, Experiment 1, with C2 5.00 μM, 21% O2)?
The IC50 was 17.2 nM.

And the IC50 (HT1080 cancer cell line; HT-1080, Experiment 1, with C2WY→AA 0.25 μM, 1% O2)?
Its IC50 is 99.1 nM.

What about the IC50 (HT1080 cancer cell line; HT-1080, Experiment 1, with C2WY→AA 0.25 μM, 21% O2) of the same compound?
The IC50 was 21.3 nM.

And the IC50 (HT1080 cancer cell line; HT-1080, Experiment 1, with C2WY→AA 5.00 μM, 1% O2)?
Its IC50 is 76.4 nM.

And the IC50 (HT1080 cancer cell line; HT-1080, Experiment 1, with C2WY→AA 5.00 μM, 21% O2)?
Its IC50 is 16.4 nM.

And the IC50 (HT1080 cancer cell line; HT-1080, Experiment 2, peptide: Vehicle, 1% O2)?
The IC50 was 70 nM.

And the IC50 (HT1080 cancer cell line; HT-1080, Experiment 2, peptide: Vehicle, 21% O2)?
The IC50 was 13.4 nM.

What about the IC50 (HT1080 cancer cell line; HT-1080, Experiment 2, with C2 0.25 μM, 1% O2) of the same compound?
Its IC50 is 30.6 nM.

What about the IC50 (HT1080 cancer cell line; HT-1080, Experiment 2, with C2 0.25 μM, 21% O2) of the same compound?
The IC50 was 11.7 nM.

What about the IC50 (HT1080 cancer cell line; HT-1080, Experiment 2, with C2 20.0 μM, 1% O2) of the same compound?
The IC50 was 15.7 nM.

What about the IC50 (HT1080 cancer cell line; HT-1080, Experiment 2, with C2 20.0 μM, 21% O2) of the same compound?
The IC50 was 10 nM.

What about the IC50 (HT1080 cancer cell line; HT-1080, Experiment 2, with C2WY→AA 0.25 μM, 1% O2) of the same compound?
The IC50 was 98.9 nM.

What about the IC50 (HT1080 cancer cell line; HT-1080, Experiment 2, with C2WY→AA 0.25 μM, 21% O2) of the same compound?
The IC50 was 12.5 nM.

What about the IC50 (HT1080 cancer cell line; HT-1080, Experiment 2, with C2WY→AA 20.0 μM, 1% O2) of the same compound?
The IC50 was 74.3 nM.

What about the IC50 (HT1080 cancer cell line; HT-1080, Experiment 2, with C2WY→AA 20.0 μM, 21% O2) of the same compound?
The IC50 was 10.9 nM.

What about the tumor growth ([2]; 1 μM Dox) of the same compound?
Its tumor growth is “unaffected”.

What about the tumor growth ([2]; 5 μM Dox topical) of the same compound?
The tumor growth was “significantly reduced”.
